Test results published in ChEMBL document CHEMBL1157213, “2-Amino-5-thiazolyl motif: a novel scaffold for designing anti-inflammatory agents of diverse structures” (Eur J Med Chem, 2008).

Legend:
[1] = target: Prostaglandin G/H synthase 1 (Homo sapiens) (UniProt P23219); assay: Inhibition of COX1 at 10 uM
[2] = target: T1, Prostaglandin G/H synthase 2 (Homo sapiens) (UniProt P35354); assay: Inhibition of COX2 at 10 uM
T1 sequence (whole entry): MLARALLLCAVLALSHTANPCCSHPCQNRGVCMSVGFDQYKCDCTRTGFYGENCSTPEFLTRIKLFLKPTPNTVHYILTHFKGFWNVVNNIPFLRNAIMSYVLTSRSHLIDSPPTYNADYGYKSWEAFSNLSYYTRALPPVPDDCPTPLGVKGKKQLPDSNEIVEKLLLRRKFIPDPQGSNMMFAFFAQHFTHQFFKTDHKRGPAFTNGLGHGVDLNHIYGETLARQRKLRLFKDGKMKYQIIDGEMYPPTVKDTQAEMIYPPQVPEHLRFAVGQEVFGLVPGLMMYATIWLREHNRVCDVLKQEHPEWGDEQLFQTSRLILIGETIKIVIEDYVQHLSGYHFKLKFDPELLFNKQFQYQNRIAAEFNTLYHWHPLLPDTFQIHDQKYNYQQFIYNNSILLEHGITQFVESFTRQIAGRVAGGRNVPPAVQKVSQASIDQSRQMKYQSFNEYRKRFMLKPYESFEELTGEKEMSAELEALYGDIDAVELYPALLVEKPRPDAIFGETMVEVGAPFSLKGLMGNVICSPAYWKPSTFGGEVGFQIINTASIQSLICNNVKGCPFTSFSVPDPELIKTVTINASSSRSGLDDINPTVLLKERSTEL

[3] = system: Rattus norvegicus; assay: Antiinflammatory activity against formalin-induced chronic paw edema rat inflammatory model assessed as reduction of paw volume at 100 mg/kg, po after 3 days relative to control; type: functional; design: scale not given: the % may be the effect or the level left
[4] = system: Rattus norvegicus; assay: Antiinflammatory activity against formalin-induced chronic paw edema rat inflammatory model assessed as reduction of paw volume at 100 mg/kg, po after 2 days relative to control; type: functional; design: scale not given: the % may be the effect or the level left
[5] = system: Rattus norvegicus; assay: Antiinflammatory activity against formalin-induced chronic paw edema rat inflammatory model assessed as reduction of paw volume at 100 mg/kg, po after 4 days relative to control; type: functional; design: scale not given: the % may be the effect or the level left
[6] = system: Rattus norvegicus; assay: Antiinflammatory activity against formalin-induced chronic paw edema rat inflammatory model assessed as reduction of paw volume at 100 mg/kg, po after 5 days relative to control; type: functional; design: scale not given: the % may be the effect or the level left
[7] = system: Rattus norvegicus; assay: Antiinflammatory activity against carrageenan-induced acute paw edema Sprague-Dawley rat inflammatory model assessed as reduction of paw volume at 100 mg/kg, po after 3 hrs relative to control; type: functional; design: scale not given: the % may be the effect or the level left
[8] = system: Rattus norvegicus; assay: Antiinflammatory activity against formalin-induced chronic paw edema rat inflammatory model assessed as reduction of paw volume at 100 mg/kg, po after 1 day relative to control; type: functional; design: scale not given: the % may be the effect or the level left
[9] = system: Rattus norvegicus; assay: Antiinflammatory activity against formalin-induced chronic paw edema rat inflammatory model assessed as reduction of paw volume at 5 mg/kg, po after 1 day relative to control; type: functional; design: scale not given: the % may be the effect or the level left
[10] = system: Rattus norvegicus; assay: Antiinflammatory activity against formalin-induced chronic paw edema rat inflammatory model assessed as reduction of paw volume at 5 mg/kg, po after 5 days relative to control; type: functional; design: scale not given: the % may be the effect or the level left
[11] = system: Rattus norvegicus; assay: Antiinflammatory activity against carrageenan-induced acute paw edema Sprague-Dawley rat inflammatory model assessed as reduction of paw volume at 5 mg/kg, po after 3 hrs relative to control; type: functional; design: scale not given: the % may be the effect or the level left
[12] = system: Rattus norvegicus; assay: Antiinflammatory activity against formalin-induced chronic paw edema rat inflammatory model assessed as reduction of paw volume at 5 mg/kg, po after 3 days relative to control; type: functional; design: scale not given: the % may be the effect or the level left
[13] = system: Rattus norvegicus; assay: Antiinflammatory activity against formalin-induced chronic paw edema rat inflammatory model assessed as reduction of paw volume at 5 mg/kg, po after 4 days relative to control; type: functional; design: scale not given: the % may be the effect or the level left
[14] = system: Rattus norvegicus; assay: Antiinflammatory activity against formalin-induced chronic paw edema rat inflammatory model assessed as reduction of paw volume at 5 mg/kg, po after 2 days relative to control; type: functional; design: scale not given: the % may be the effect or the level left
[15] = system: Rattus norvegicus; assay: Toxic gastric-ulcerogenic effect in Sprague-Dawley rat assessed as lesion score at 100 mg/kg, po after 7 days; type: toxicity, organism-based; design: dose 100 mg/kg, route oral; settings: in vivo, 168 h
[16] = system: Rattus norvegicus; assay: Antiinflammatory activity against formalin-induced chronic paw edema rat inflammatory model assessed as reduction of paw volume at 50 mg/kg, po after 4 days relative to control; type: functional; design: scale not given: the % may be the effect or the level left
[17] = system: Rattus norvegicus; assay: Antiinflammatory activity against formalin-induced chronic paw edema rat inflammatory model assessed as reduction of paw volume at 50 mg/kg, po after 5 days relative to control; type: functional; design: scale not given: the % may be the effect or the level left
[18] = system: Rattus norvegicus; assay: Antiinflammatory activity against carrageenan-induced acute paw edema Sprague-Dawley rat inflammatory model assessed as reduction of paw volume at 50 mg/kg, po after 3 hrs relative to control; type: functional; design: scale not given: the % may be the effect or the level left
[19] = system: Rattus norvegicus; assay: Antiinflammatory activity against formalin-induced chronic paw edema rat inflammatory model assessed as reduction of paw volume at 50 mg/kg, po after 2 days relative to control; type: functional; design: scale not given: the % may be the effect or the level left
[20] = system: Rattus norvegicus; assay: Antiinflammatory activity against formalin-induced chronic paw edema rat inflammatory model assessed as reduction of paw volume at 50 mg/kg, po after 3 days relative to control; type: functional; design: scale not given: the % may be the effect or the level left
[21] = system: Rattus norvegicus; assay: Antiinflammatory activity against formalin-induced chronic paw edema rat inflammatory model assessed as reduction of paw volume at 50 mg/kg, po after 1 day relative to control; type: functional; design: scale not given: the % may be the effect or the level left

Prostaglandin G/H synthase 1 (Homo sapiens), sequence (P23219 whole entry): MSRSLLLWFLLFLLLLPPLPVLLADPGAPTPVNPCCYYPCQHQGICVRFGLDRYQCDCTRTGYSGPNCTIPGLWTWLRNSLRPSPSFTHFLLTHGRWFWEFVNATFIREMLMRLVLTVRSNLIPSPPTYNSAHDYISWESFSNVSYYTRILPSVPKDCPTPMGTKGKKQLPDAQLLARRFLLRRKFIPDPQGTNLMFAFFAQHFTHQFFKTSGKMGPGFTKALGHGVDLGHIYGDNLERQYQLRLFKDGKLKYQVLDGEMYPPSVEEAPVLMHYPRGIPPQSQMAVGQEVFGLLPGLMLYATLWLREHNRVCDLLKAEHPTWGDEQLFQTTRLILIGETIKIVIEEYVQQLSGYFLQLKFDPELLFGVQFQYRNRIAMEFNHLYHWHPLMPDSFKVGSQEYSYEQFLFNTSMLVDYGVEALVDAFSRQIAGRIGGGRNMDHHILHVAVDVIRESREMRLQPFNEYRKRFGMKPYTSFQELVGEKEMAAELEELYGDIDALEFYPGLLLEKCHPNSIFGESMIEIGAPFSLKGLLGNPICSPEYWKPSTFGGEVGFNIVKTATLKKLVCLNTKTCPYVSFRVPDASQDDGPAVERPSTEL

| Structure (SMILES) | inhibition [1] [%] | inhibition [2] [%] | Activity [3] [%] | Activity [4] [%] | Activity [5] [%] | Activity [6] [%] | Activity [7] [%] | Activity [8] [%] | Activity [15] [mm] | also measured |
| --- | --- | --- | --- | --- | --- | --- | --- | --- | --- | --- |
| C[C@@H]1C[C@H]2[C@@H]3CCC4=CC(=O)C=C[C@]4(C)[C@@]3(F)[C@@H](O)C[C@]2(C)[C@@]1(O)C(=O)CO [DEXAMETHASONE] | – | – | – | – | – | – | – | – | – | Activity [9]: 70%; Activity [10]: 94%; Activity [11]: 85%; Activity [12]: 96%; Activity [13]: 89%; Activity [14]: 92% |
| CC(C)Cc1ccc(C(C)C(=O)O)cc1 (stereo not given) [IBUPROFEN] | – | – | – | – | – | – | – | – | 12 | – |
| CS(=O)(=O)c1ccc(C2=C(c3ccccc3)C(=O)OC2)cc1 [ROFECOXIB] | – | – | – | – | – | – | – | – | – | Activity [16]: 29%; Activity [17]: 30%; Activity [18]: 40%; Activity [19]: 32%; Activity [20]: 35%; Activity [21]: 39% |
| CC(=O)Oc1ccccc1C(=O)O [ASPIRIN] | – | – | – | – | – | – | – | – | 5 | – |

Second part, led by results:

| inhibition [1] [%] | inhibition [2] [%] | Structure (SMILES) | Activity [3] [%] | Activity [4] [%] | Activity [5] [%] | Activity [6] [%] | Activity [7] [%] | Activity [8] [%] | Activity [15] [mm] | also measured |
| --- | --- | --- | --- | --- | --- | --- | --- | --- | --- | --- |
| -5.91 | 10.4 | CS(=O)(=O)c1ccc(C(=O)c2sc(N3CCOCC3)nc2-c2ccccc2)cc1 | 42 | 44 | 38 | 27 | 63 | 88 | – | – |
| -3.61 | 8.91 | CCOC(=O)Nc1nc(C)c(/C(=N\O)c2ccc(S(C)(=O)=O)cc2)s1 | 72 | 78 | 47 | 5 | 69 | 29 | – | – |
| 6.31 | 19.3 | O=C(Nc1nc(-c2ccccc2)c(C(=O)C(=O)c2sc(NC(=O)c3ccccc3)nc2-c2ccccc2)s1)c1ccccc1 | 84 | 92 | 38 | 41 | 73 | 88 | 12 | – |
| 4.13 | 15.2 | COC(=O)Nc1nc(N(C)C)c(C(=O)c2ccc(S(C)(=O)=O)cc2)s1 | 26 | 40 | 43 | 0 | 30 | 29 | – | – |
| -6.25 | 19.5 | CNc1nc(N(C)C)c(C(=O)/C(=N/OC)C(=O)OC)s1 | 95 | 90 | 72 | 66 | 83 | 96 | – | – |
